Patent publication US11136409B2, “Compositions and methods for identification, assessment, prevention, and treatment of AML using USP10 biomarkers and modulators” (Dana-Farber Cancer Institute, Inc., priority 2016, dated 2021)
Where two headings read alike, the source gives them in different places.

Experiments:
[1] = tested on: Ba/F3-FLT3-ITD cells; test: Immunoblot of FLT3 / Beclin-1 in Ba/F3-FLT3-ITD cells; type: cell-based, murine; details: concentration up to 20 μM
Description: (§1) The following antibodies were purchased from Cell Signaling Technology (Danvers, Mass.): total AKT (rabbit, #9272) and total p44/42 MAPK (Erk1/2) (3A7) (mouse, #9107) were used at 1:1000 dilution. Anti-GAPDH (D16H-11) XP (R) (rabbit mAb, #5174) was used at 1:1000 dilution. Beclin-1 (rabbit, #3738) was used at 1:1000. USP10 (D7A5) (rabbit, #8501) was used at 1:1000 dilution. P53 (rabbit, #9282) was used at 1:1000 dilution. β-tubulin (rabbit, #2146s) was used 1:1000.
(§2) FLT3/Flk-2 (C-20) (sc-479) and Ub (P4D1) (mouse, sc-8017) were purchased from Santa Cruz Biotechnology, Inc. (Dallas, Tex.) and used at 1:1000 dilution for immunoblotting. Anti-pTyr (mouse, clone 4G10) was purchased from Upstate Biotechnology (Lake Placid, N.Y.) and was used at 1:1000 dilution. Anti-HAUSP/USP7 antibody (rabbit, ab4080) and anti-ubiquitin antibody (rabbit, ab7780) were purchased from Abcam (Cambridge, Mass.) and used at 1:1000 dilution.
(§3) Protein lysate preparation, immunoblotting, and immunoprecipitation were carried out as previously described in Weisberg et al. (2002) Cancer Cell 1:433-443.

[2] = tested on: Ba/F3-FLT3-ITD cells; test: Proliferation of Ba/F3-FLT3-ITD cells; type: cell-based, murine; details: concentration up to 20 μM; approximately 72 hours
Description: (§4) Nomo-1, P31-FUJ, and NB4 were obtained from Dr. Gary Gilliland. MV4, 11 cells were obtained from Dr. Anthony Letai. Hel, K562, THP, U937, TF-1 and K052 cells were purchased from the American Type Culture Collection (ATCC) (Manassas, Va., USA). […] Cell lines were submitted for cell line authentication and were authenticated within 6 months of manuscript preparation through cell line short tandem repeat (STR) profiling (DDC Medical, Fairfield, Ohio and Molecular Diagnostics Laboratory, Dana Farber Cancer Institute). […] PBMCs were generously provided by Dr. Steven Treon and Dr. Guang Yang.
(§5) The CellTiter-Glo® assay (Promega, Madison, Wis.) was used for proliferation studies and carried out according to manufacturer instructions. Cell viability is reported as percentage of control (untreated) cells, and error bars represent the standard error of the mean for each data point.

[3] = tested on: primary tumor cells from FLT3-ITD positive AML patients and FLT3 mutant primagrafts; test: Survival of primary AML patient cells and FLT3 mutant primagrafts; type: cell-based, human; details: approximately 72 hrs of treatment
Description: as §5, with “The trypan blue exclusion assay has been previously described in Weisberg et al. (2002) Cancer Cell 1:433-443 and was used for quantification of cells prior to seeding for CellTiter-Glo® assays. The” for “The”
Mononuclear cells were isolated from samples from AML patients identified as harboring mutant FLT3. Cells were tested in liquid culture (DMEM supplemented with 20% FBS) in the presence of different concentrations of single and combined agents. All blood and bone marrow samples from AML patients were obtained under approval of the Dana Farber Cancer Institute Institutional Review Board.

[4] = tested on: AML primagraft (D835Y+, FLT3-ITD+) cells; test: Treatment of mutant FLT3-expressing AML primagraft cells ex vivo; type: cell-based, human; details: Homo sapiens; 24 hr assay; read-out: IC50 (+/−S.D.) AML primagraft (D835Y+, FLT3-ITD+)
Experimental: All animal studies were performed according to protocols approved by the Dana-Farber Cancer Institute's Institutional Animal Care and Use Committee. […] Mice were sacrificed on day 21 of treatment. Bone marrow was flushed from mouse femurs, and spleens and livers were dissected and preserved first in formalin, followed 24 hours later by preservation in 70% ethanol. […] All AML primagraft samples used in the studies described herein were obtained through the Public Repository of Xenografts (proxe.org).
as §5

[5] = tested on: MOLM14 cells; test: Immunoblot of FLT3, Beclin-1, AKT, ERK1/ERK2 in MOLM14 cells; type: cell-based, human; details: approximately 23 hours of treatment
Description: as §1, §2, §3

[6] = tested on: PBMCs; test: Treatment of PBMCs from healthy donors with USP10-targeting inhibitors; type: cell-based, human; details: Homo sapiens, 24 hr assay
Description: as §4, §5

[7] = tested on: USP10; test: USP10 target engagement in cells, labeling with HA-Ub-VS; type: cell-based; details: lysates from live treated cells
Experimental: Cells were harvested, washed with PBS, and lysed in 1% NP-40, 10% glycerol, 2% sodium orthovanadate, and HALT protease inhibitor cocktail (ThermoFisher). Lysate was diluted to 50 ug in 30 uL lysis buffer with 1% DTT and incubated on ice for 15 minutes. 0.25 ug HA-Ub-VS was added, and the sample was gently rocked at room temperature for 30 minutes, then denatured with LDS sample buffer.

[8] = molecular target: T1, human USP10 (residues 376-798) (Homo sapiens, UniProt Q14694); test: In vitro USP10 activity assay (Ubiquitin-AMC); type: biochemical; details: ubiquitin-AMC as substrate; purified enzyme; read-out: USP10 biochemical IC50
T1 construct: A construct of human USP10 covering residues 376-798 in the pET28a vector; His-tag (cleaved yes); made in house; host or cells: E. coli BL21 (DE3)
T1 sequence (Q14694 376-798): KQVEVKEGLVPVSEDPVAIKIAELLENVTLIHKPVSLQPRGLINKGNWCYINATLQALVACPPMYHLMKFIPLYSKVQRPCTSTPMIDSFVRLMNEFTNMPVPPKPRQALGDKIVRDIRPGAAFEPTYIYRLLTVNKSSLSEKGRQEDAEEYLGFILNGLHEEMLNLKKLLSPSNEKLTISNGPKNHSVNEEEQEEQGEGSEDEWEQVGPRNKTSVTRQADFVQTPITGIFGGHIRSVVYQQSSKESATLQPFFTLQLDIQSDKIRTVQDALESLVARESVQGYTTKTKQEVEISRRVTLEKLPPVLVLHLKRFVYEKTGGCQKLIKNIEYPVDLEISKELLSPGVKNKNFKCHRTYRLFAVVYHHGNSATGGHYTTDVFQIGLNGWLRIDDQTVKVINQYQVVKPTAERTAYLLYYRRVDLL
Experimental: Protein expression and purification. A construct of human USP10 covering residues 376-798 in the pET28a vector was over-expressed in E. coli BL21 (DE3) in TB medium in the presence of […] of kanamycin. Cells were grown at 37° C. to an OD of 0.8, cooled to 17° C., induced with 500 μM isopropyl-1-thio-D-galactopyranoside, incubated overnight at 17° C., collected by centrifugation, and stored at −80° C. Cell pellets were sonicated in buffer A (50 mM HEPES (pH 7.5), 300 mM NaCl, 10% glycerol, 10 mM Imidazole, and 3 mM BME) and the resulting lysate was centrifuged at 30,000×g for 30 min. Ni-NTA beads (Qiagen) were mixed with lysate supernatant for 30 min and washed with buffer A. Beads were transferred to an FPLC-compatible column and the bound protein was washed with 15% buffer B (50 mM HEPES (pH 7.5), 300 mM NaCl, 10% glycerol, 300 mM Imidazole, and 3 mM BME) and eluted with 100% buffer B. Thrombin was added to the eluted protein and incubated at 4° C. overnight. The sample was then passed through a HiPrep 26/10 desalting column (GE Healthcare) pre-equilibrated with buffer A without imidazole, and the eluted protein was subjected to a second Ni-NTA step to remove His-tag and Thrombin. The eluent was concentrated and passed through a Superdex® 200 10/300GL column (GE Healthcare) in a buffer containing 20 mM HEPES (pH 7.5), 150 mM NaCl, and 1 mM DTT. Fractions were pooled, concentrated to 20 mg/ml, and frozen at −80° C.
In vitro USP10 activity assay. Recombinant USP10, residues 376-798, was tested for its activity in a Ubiquitin-AMC assay in presence or absence of inhibitors. For this assay, 10 nM USP10 were pre-incubated with different concentrations of inhibitors or DMSO as a control in 50 mM HEPES pH7.6, 0.5 mM EDTA, 11 uM ovalbumin, and 5 mM DTT. The reaction was incubated for 6 hours at room temperature prior to the addition of 2 uM Ubiquitin-AMC (Boston Biochem) substrate. The initial rate of the reaction was measured by collecting fluorescence data at one minute intervals over 30-minute period using a CLARIOstar® fluorescence plate reader at excitation and emission wavelength of 345 and 445 nm, respectively. The calculated initial rate values were plotted against inhibitor concentrations to determine IC50 values.

SMILES | FLT3 levels [1] | Cell viability [2] | Survival of patient samples and primagrafts [3] | IC50 [4] [µM] | Expression of AKT and ERK1/ERK2 downstream of FLT3 [5] | IC50 ([6]; PBMC#1, read-out: IC50 (+/−S.D.) PBMC#1) [µM] | IC50 ([6]; PBMC#2, read-out: IC50 (+/−S.D.) PBMC#2) [µM] | Inhibitor concentration blocking USP10 labeling by HA-Ub-VS [7] | IC50 [8] [µM]
O=C(CCc1ccccc1)N1CCC(O)(Cn2cnc3cc(Cl)ccc3c2=O)CC1 [Compound 2] | did not lead to reduced FLT3 levels | little impact on cell viability | little to no effect |  |  |  |  |  | 
CS(=O)(=O)c1ccc(NC(=O)c2cc(C#N)c(Sc3c(Cl)cncc3Cl)s2)cc1 [1247825-37-1, reference compound] |  |  |  | 2.5 | unchanged | 14.9 | 16.6 | low micromolar range | 36
